This passage reports melting point and IC50 results from US6861434B2, “Antipsychotic aminomethyl derivatives of 1,3,7,8-tetrahydro-6,9-dioxa-1,3-diaza-cyclopenta[a]-naphthalen-2-one” (Wyeth, priority 2001, dated 2005).

One data set addresses T1, dopamine D2 receptor (Rattus norvegicus, UniProt P61169).
T1 construct: from tissue; host or cells: rat striatal brain tissue homogenate
Kind of data set: Dopamine D2 receptor affinity, 3H-quinpirole binding in homogenized rat striatal brain tissue. As for the experimental part: Affinity for the dopamine D2 receptor was established by a modification of the standard experimental test procedure of Seemen and Schaus, European Journal of Pharmacology 203: 105-109, 1991, wherein homogenized rat striatal brain tissue is incubated with ^3H-quinpirole and various concentrations of test compound, filtered and washed and counted in a Betaplate scintillation counter.

Structures can show the parent of a compound that is named as a salt. A value given as a limit tells only on which side of the number the result lay.

T1 sequence (P61169 whole entry): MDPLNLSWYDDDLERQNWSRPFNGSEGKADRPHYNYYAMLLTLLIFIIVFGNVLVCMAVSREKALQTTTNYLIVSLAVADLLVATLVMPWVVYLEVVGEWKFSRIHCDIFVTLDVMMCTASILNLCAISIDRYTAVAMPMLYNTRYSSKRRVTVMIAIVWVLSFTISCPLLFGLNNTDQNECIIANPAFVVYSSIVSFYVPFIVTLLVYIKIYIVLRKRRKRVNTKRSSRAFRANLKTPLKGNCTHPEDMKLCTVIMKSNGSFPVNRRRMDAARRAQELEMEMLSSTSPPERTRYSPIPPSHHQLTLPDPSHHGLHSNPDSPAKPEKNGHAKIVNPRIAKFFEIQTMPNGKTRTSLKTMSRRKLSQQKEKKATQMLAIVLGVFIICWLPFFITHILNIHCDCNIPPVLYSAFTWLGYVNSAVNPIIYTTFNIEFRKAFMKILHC

In general, melting point refers to the temperature of the solid-liquid transition. On to `O=c1[nH]c2ccc3c(c2[nH]1)OC(CNCCCc1c[nH]c2ccccc12)CO3` (stereo not drawn) (as salt: hydrochloride) [Example 8, 8-{[3-(1H-indol-3-yl)-propylamino]-methyl}-1,3,7,8-tetrahydro-6,9-dioxa-1,3-diaza-cyclopenta[a]naphthalen-2-one], for which the melting point was 200 to 207 °C (dec.).
Usually IC50 stands for the concentration that inhibits the measured activity by half. For `O=c1[nH]c2ccc3c(c2[nH]1)OC(CN1CC=C(c2ccccc2)CC1)CO3` (stereo not drawn) [Example 3, 8-(4-Phenyl-5,6-dihydro-2H-pyridin-1-ylmethyl)-1,3,7,8-tetrahydro-6,9-dioxa-1,3-diaza-cyclopenta[a]naphthalen-2-one], at dopamine D2 receptor, the IC50 was found to be 1.3 nM.
Still for that read-out and setting: to `O=C(c1ccc(F)cc1)C1CCN(C[C@H]2COc3ccc4[nH]c(=O)[nH]c4c3O2)CC1` [Example 6, 8-[4-(4-Fluoro-benzoyl)-piperidin-1-ylmethyl]-1,3,7,8-tetrahydro-6,9-dioxa-1,3-diaza-cyclopenta[a]naphthalen-2-one] belongs 1.43 nM.
Regarding `O=c1[nH]c2ccc3c(c2[nH]1)OC(CNCc1ccccc1)CO3` (stereo not drawn) (as salt: fumarate) (hydrate or solvate) [Example 1, 8-(Benzylamino-methyl)-1,3,7,8-tetrahydro-6,9-dioxa-1,3-diaza-cyclopenta[a]naphthalen-2-one], the melting point is 149 to 151 °C.
Regarding `O=c1[nH]c2ccc3c(c2[nH]1)OC(CNCCCc1c[nH]c2ccccc12)CO3` (stereo not drawn) [Example 8, 8-{[3-(1H-indol-3-yl)-propylamino]-methyl}-1,3,7,8-tetrahydro-6,9-dioxa-1,3-diaza-cyclopenta[a]naphthalen-2-one], on dopamine D2 receptor, the concentration for half-maximal inhibition (IC50) came to 0.02 nM.
`O=c1[nH]c2ccc3c(c2[nH]1)OC(CN1CC=C(c2ccccc2)CC1)CO3` (stereo not drawn) (as salt: fumarate) (hydrate or solvate) [Example 3, 8-(4-Phenyl-5,6-dihydro-2H-pyridin-1-ylmethyl)-1,3,7,8-tetrahydro-6,9-dioxa-1,3-diaza-cyclopenta[a]naphthalen-2-one]: the melting point was in the range of 205 to 209 °C.
In the case of `CC(=O)Nc1cccc(OCCCNCC2COc3ccc4[nH]c(=O)[nH]c4c3O2)c1` (stereo not drawn) [Example 7, N-(3-{3-[(2-Oxo-2,3,7,8-tetrahydro-1H-6,9-dioxa-1,3-diaza-cyclopenta[a]naphthalen-8-ylmethyl)-amino]propoxy}-phenyl)-acetamide], the half-maximal inhibitory concentration (IC50) on dopamine D2 receptor came out at 0.55 nM. That is a sub-nanomolar value.
In turn, `O=c1[nH]c2ccc3c(c2[nH]1)OC(CNCCCCc1ccccc1)CO3` (stereo not drawn) [Example 2, 8-[(4-Phenyl-butylamino)-methyl]-1,3,7,8-tetrahydro-6,9-dioxa-1,3-diaza-cyclopenta[a]naphthalen-2-one] yielded a 50% inhibitory concentration (IC50) on dopamine D2 receptor of 0.18 nM.
Molecule `O=c1[nH]c2ccc3c(c2[nH]1)OC(CN1CCC2C=CC=CC2C1)CO3` (stereo not drawn) (as salt: hydrochloride) [Example 5] registered a melting point above 275 °C.
For the molecule `O=c1[nH]c2ccc3c(c2[nH]1)OC(CNCc1ccccc1)CO3` (stereo not drawn) [Example 1, 8-(Benzylamino-methyl)-1,3,7,8-tetrahydro-6,9-dioxa-1,3-diaza-cyclopenta[a]naphthalen-2-one], on dopamine D2 receptor, the IC50 was 0.39 nM.
The molecule `O=c1[nH]c2ccc3c(c2[nH]1)OC(CNCC12CC4CC(CC(C4)C1)C2)CO3` (stereo not drawn) (as salt: hydrochloride) (hydrate or solvate) [Example 4, 8-{[(Adamantan-1-ylmethyl)-amino]-methyl}-1,3,7,8-tetrahydro-6,9-dioxa-1,3-diaza-cyclopenta[a]naphthalen-2-one] registered a melting point above 250 °C.
`O=c1[nH]c2ccc3c(c2[nH]1)O[C@@H](CN1CCc2ccccc2C1)CO3` [Example 5] yielded an IC50 on dopamine D2 receptor of 6.78 nM.
As to `CC(=O)Nc1cccc(OCCCNCC2COc3ccc4[nH]c(=O)[nH]c4c3O2)c1` (stereo not drawn) (as salt: fumarate) (hydrate or solvate) [Example 7, N-(3-{3-[(2-Oxo-2,3,7,8-tetrahydro-1H-6,9-dioxa-1,3-diaza-cyclopenta[a]naphthalen-8-ylmethyl)-amino]propoxy}-phenyl)-acetamide], the melting point was 125 °C (dec.).
In the case of `O=c1[nH]c2ccc3c(c2[nH]1)OC(CNCC12CC4CC(CC(C4)C1)C2)CO3` (stereo not drawn) [Example 4, 8-{[(Adamantan-1-ylmethyl)-amino]-methyl}-1,3,7,8-tetrahydro-6,9-dioxa-1,3-diaza-cyclopenta[a]naphthalen-2-one], the 50% inhibitory concentration (IC50) at dopamine D2 receptor came out at 0.84 nM.
For the molecule `O=c1[nH]c2ccc3c(c2[nH]1)OC(CNCCCCc1ccccc1)CO3` (stereo not drawn) (as salt: fumarate) (hydrate or solvate) [Example 2, 8-[(4-Phenyl-butylamino)-methyl]-1,3,7,8-tetrahydro-6,9-dioxa-1,3-diaza-cyclopenta[a]naphthalen-2-one], the melting point was in the range of 224 to 226 °C.
